US20240327320A1, “NOVEL ROUTES OF CHEMICAL SYNTHESIS OF 20S(OH)D3, 20S,25(OH)2D3, 20S,23S(OH)2D3, AND 20S,23R(OH)2D3 AND THEIR MODIFICATION OF THE IMMUNE ACTIVITY OF PBMCS” (United State Government as represen ted by the Department …, priority 2023, published 2024)

Assays:
[1] = tested on: Human dermal fibroblasts (HDFn); assay: Proliferation, MTS assay, fibroblasts; assay type: cell-based; conditions: 24 h or 48 h, 0.1-100 nM, FIG. 6
Procedure: (§1) Human dermal fibroblasts isolated from the skin of black neonates (HDFn) and human epidermal (HaCaT) keratinocytes cultured as described previously (Slominski A, et. al., (2013) The Journal of Clinical Endocrinology and Metabolism 98(2) E298-303; Slominski A T, et. al., (2011) Am J Physiol Cell Physiol 300(3) C526-41) were used for the experiments. Briefly, HDFn were plated onto 96-well plates at a confluence of about 70% in their seventh passage. Both HDFn and HaCaT keratinocytes were treated with 20S(OH)D3, 20S,25(OH)2D3, 20S,23S(OH)2D3, 20S,23R(OH)2D3 or 1α,25(OH)2D3 (Sigma-Aldrich, St. Louis, MO, USA) dissolved in ethanol and diluted in DMEM containing charcoal-treated serum, as previously described (Janjetovic Z, et. al., (2021) Endocrinology 162(1); Chaiprasongsuk A, et. al., (2020) Free Radic Biol Med 155 87-98; Slominski A T, et. al., (2011) Am J Physiol Cell Physiol 300(3) (2011) C526-41). The vehicle control comprised 0.1% ethanol. Proliferation was estimated using MTS (Promega, Madison, WI) assay. The number of viable cells was measured in 6 replicates.
(§2) Referring to FIG. 6A-D, inhibition of cell proliferation by 20S(OH)D3, 20S,25(OH)2D3, 20S,23S(OH)2D3 and 20S,23R(OH)2D3 in comparison to 1α,25(OH)2D3 is represented. […] Data are means±SD (n=6) and were analyzed using Student's t-test with p<0.05 (*), p<0.01 (**) or p<0.001 (***).

[2] = literature, at the same doses; cited from earlier work
[3] = tested on: Human epidermal (HaCaT) keratinocytes; assay: Proliferation, MTS assay, keratinocytes; assay type: cell-based; conditions: 24 h or 48 h, 0.1-100 nM, FIG. 6
Procedure: as §1, §2

LXRβ = biological target: T1, LXRβ (Homo sapiens, UniProt P55055); assay: LanthaScreen TR-FRET LXRβ coactivator assay; assay type: biochemical; conditions: TR-FRET ratio 520/495 nm, FIG. 8E-F
T1 construct: purchased Thermo Fisger Scientific, Inc
T1 sequence (P55055 222-460 limits assumed): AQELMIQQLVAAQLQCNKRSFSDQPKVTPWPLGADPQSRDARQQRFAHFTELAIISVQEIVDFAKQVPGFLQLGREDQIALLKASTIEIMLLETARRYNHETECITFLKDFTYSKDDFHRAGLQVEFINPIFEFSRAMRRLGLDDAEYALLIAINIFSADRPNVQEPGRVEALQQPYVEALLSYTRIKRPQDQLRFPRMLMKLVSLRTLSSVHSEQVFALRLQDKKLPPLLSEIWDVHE
Procedure: The bindings were performed using the LanthaScreen TR-FRET LXRa/0 Coactivator kit (Thermo Fisger Scientific, Inc., Waltham, MA) as described previously (Slominski A T, et. al., (2021) Sci Rep 11(1) 8002). Briefly, TR-FRET ratios were calculated by dividing the emission at 520 nm by that at 495 nm using Synergy neo2 (BioTek, Winooski, VT).

Human AhR = biological target: T2, Human AhR (Homo sapiens, UniProt P35869); assay: Human AhR Reporter Assay System (luciferase); assay type: cell-based; conditions: 23 h treatment
T2 construct: purchased Indigo Biosciences
T2 sequence (P35869 11-848): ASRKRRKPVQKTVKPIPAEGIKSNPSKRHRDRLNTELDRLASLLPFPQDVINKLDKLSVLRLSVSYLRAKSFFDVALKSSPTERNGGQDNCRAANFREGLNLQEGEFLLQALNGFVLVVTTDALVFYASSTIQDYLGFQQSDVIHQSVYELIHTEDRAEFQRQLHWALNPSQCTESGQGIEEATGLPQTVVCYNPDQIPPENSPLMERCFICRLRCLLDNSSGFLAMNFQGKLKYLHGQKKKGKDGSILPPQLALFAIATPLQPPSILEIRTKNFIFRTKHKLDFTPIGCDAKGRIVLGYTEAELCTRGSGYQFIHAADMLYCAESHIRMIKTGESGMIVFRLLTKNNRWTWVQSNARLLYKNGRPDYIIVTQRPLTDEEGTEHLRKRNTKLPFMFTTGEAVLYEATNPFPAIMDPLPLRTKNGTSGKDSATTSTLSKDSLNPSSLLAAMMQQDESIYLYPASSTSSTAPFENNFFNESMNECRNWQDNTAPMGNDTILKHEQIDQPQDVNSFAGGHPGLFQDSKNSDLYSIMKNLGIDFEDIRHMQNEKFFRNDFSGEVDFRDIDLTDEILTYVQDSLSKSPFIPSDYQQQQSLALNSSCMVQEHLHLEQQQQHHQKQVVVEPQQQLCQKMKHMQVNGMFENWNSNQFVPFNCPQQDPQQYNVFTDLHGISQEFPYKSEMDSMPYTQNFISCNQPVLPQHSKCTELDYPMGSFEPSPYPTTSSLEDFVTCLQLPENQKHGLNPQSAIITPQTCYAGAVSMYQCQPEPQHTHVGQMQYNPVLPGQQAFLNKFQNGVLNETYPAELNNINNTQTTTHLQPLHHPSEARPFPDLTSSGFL
Procedure: The binding of chemically synthesized secosteroids to AhR was tested using the Human AhR Reporter Assay System (Indigo Biosciences, State College, PA, USA) following the manufacturer's protocol and as detailed previously (Slominski A T, et. al., (2018) Int J Mol Sci 19(10)). Briefly, the cells including the luciferase reporter gene linked to an AhR-responsive promoter were treated with the compounds for 23 h and the luminescence signal was measured using Cytation 5 (Biotek, Winooski, VT, USA) after treatment with the detection substrate provided in the kit system.

SMILES	inhibition of fibroblast proliferation [1]	calcemic activity / toxicity [2]	inhibition of keratinocyte proliferation [3]	activity on LXRβ (LXRβ)	activity on AhR (Human AhR)
C=C1CC[C@H](O)C/C1=C/C=C1\CCC[C@@]2(C)[C@H]1CC[C@@H]2[C@@](C)(O)CCCC(C)C [20S(OH)D3, (20S)-20-Hydroxyvitamin D3]	inhibits fibroblast and keratinocyte proliferation	non-calcemic	inhibits fibroblast and keratinocyte proliferation	–	–
C=C1CC[C@H](O)C/C1=C/C=C1\CCC[C@@]2(C)[C@H]1CC[C@@H]2[C@@](C)(O)CCCC(C)(C)O [20S,25(OH)2D3, (20S)-20,25-Dihydroxyvitamin D3]	inhibits fibroblast and keratinocyte proliferation	–	inhibits fibroblast and keratinocyte proliferation	–	–
C=C1CC[C@H](O)C/C1=C/C=C1\CCC[C@@]2(C)[C@H]1CC[C@@H]2[C@@](C)(O)C[C@@H](O)CC(C)C [20S,23S(OH)2D3, (20S,23S)-20,23-Dihydroxyvitamin D3]	–	non-calcemic	–	better affinity with LXRβ	agonistic activity
C=C1CC[C@H](O)C/C1=C/C=C1\CCC[C@@]2(C)[C@H]1CC[C@@H]2[C@@](C)(O)C[C@H](O)CC(C)C [20S,23R(OH)2D3, (20S,23R)-20,23-Dihydroxyvitamin D3]	–	–	–	less efficient in activation of LXRβ than 20S,23S(OH)2D3	reverse agonist
